Consider one compound from patent US7101915B1, “P-terphenyl compounds” (Shionogi & Co., Ltd., priority 1996, dated 2006).

Experiment [1] relates to inflammatory cells in BAL solution of OVA-sensitized mice. Briefly: Suppressive effect on bronchial inflammatory cell infiltration by inhalation of antigen (BAL cell counts). Format: in vivo, BALB/c mice. The following applies: 40 mg/kg orally for 9 days, BAL 48 hours after challenge, FIG. 4. As for the experimental part: Experiment 7 Suppressive Effect on Bronchial Inflammatory Cell Infiltration by Inhalation of Antigen • 1. Experimental Method • 1) Animals
BALB/c mice bought from Japan SLC, Inc. (Shizuoka) (female, 8-11 weeks old) were used for experiments.
2) Sensitizing and Challenge of Antigen
For immunizing, 0.2 ml of a suspension of 2 μg of ovalbumin (OVA; Grade V, SIGMA) and 2 mg of aluminium hydroxide gel in physiological saline was intraperitoneally injected. After 2 weeks, 0.2 ml of a solution of 2 μg of OVA in physiological saline was intraperitoneally injected for a booster. […]
After calculation of the total cell number by coloring of a part of BAL solution with Türk solution, cells in BAL solution were put on a slide glass with cytospin (SHANDON) for May-Grünwald-Giemsa (MERCK) staining. Under a microscope, 500 cells were classified to a macrophage, an eosinophil, a neutrophil and a lymphocyte and a proportion of each type of the cells was calculated. The number of each type of the cells was calculated by a multiplication of its proportion and the total cell number.

For experiment [2], the system named is IgG2a production of mouse spleen lymphocytes. Briefly: Suppressive effect on antibody production of mouse spleen lymphocytes: IgG2a. The note with it: Lymphocyte, 240 h, LPS + IL-4, 10 days. Format: cell-based, BALB/c (nu/nu) mice. As for the experimental part: (§1) Experiment 6 Suppressive Effect on Antibody Production of Mouse Spleen Lymphocytes 1. Experimental Method 1) Animals
(§2) BALB/c (nu/nu) mice were bought from Japan SLC, Inc. (Shizuoka) and 7 weeks old-male mice were used.
(§3) RPMI medium (Nissui Pharmaceutical Co., Ltd.) containing 10% fetal bovine serum (HyClone Lab.) inactivated at 56° C. for 30 minutes, penicillin (100 units/ml) and streptomycin (100 μg/ml) (GIBCO) was used for experiments.
(§4) Each of the compounds was dissolved in dimethylsulfoxide (Nakaraitesk) at […] and diluted with the medium to adjust a final concentration to 0.1 μg/ml −10 μg/ml.
4) Mouse Spleen Lymphocytes […]
(§5) In 96-well cultivating plate (Sumitomo Bakelite Company Limited) mouse spleen lymphocytes were inoculated 2×10^5 cells per well. […] After the cultivation for 10 days, the amount of the antibody in a supernatant was quantified by ELISA method.
7) Quantification of the IgG1, IgG2a and IgM Antibodies
In 96-well plate 50 μl of 10 μg/ml Goat Anti-Mouse Ig (IgM+G+A, H+ L) (Southern Biotechnology, Birmingham) was added and the plate was coated at 4° C. overnight. […] After washing three times with PBST, 100 μl of culture supernatant which was diluted with PBS or 100 μl of an antibody standard solution (Mouse IgG1 standard, Mouse IgG2a standard, Mouse IgM standard, BETHYL Laboratories) of a pre-determined concentration was added and incubated for 1 hour. […]

For experiment [3], the system named is IgE production of mouse spleen lymphocytes (lipopolysaccharide, IL-4). Briefly: Suppressive effect on antibody production of mouse spleen lymphocytes: IgE. Format: cell-based, BALB/c (nu/nu) mice. The following applies: Lymphocyte, 240 h, LPS + IL-4, 10 days. As for the experimental part:
as §1, §2, §3, §4
4) Mouse Spleen Lymphocytes
A spleen of mouse was taken out and put in a cultivating schale which was filled with Hanks' solution. The spleen was crushed and the cells were pushed out from the organ and filtered through a metal mesh (200 mesh). After the collected cell suspension was washed by centrifugation with sterile Hanks' solution (Nissui Pharmaceutical Co., Ltd.), sterile distilled water was added. […]
as §5
6) Quantification of the IgE Antibody
A commercial mouse IgE EIA kit (Yamasa Shoyu Co., Ltd.) was used for the quantification of the IgE. […]

In the case of `Cc1cc(-c2ccc(OCC=C(Cl)Cl)c(F)c2)c(C)cc1-c1ccc(O)cc1` [Compound I-963], in experiment [1], the “increasing number of eosinophils by the challenge of antigen” value is “significantly suppresses” and the “increasing number of neutrophils by the challenge of antigen” value was “significantly suppresses”. The half-inhibitory concentration (IC50) in experiment [2] came to 3.6 µg/mL. Further, in experiment [3], the IC50 came out at 0.00026 ng/mL.
